Laboratory results: ChEMBL document CHEMBL4507325 (2021)

Columns and labels:
[1] = biological target: 5-hydroxytryptamine receptor 3A (Homo sapiens) (UniProt P46098); details: Compound concentration 10.0 uM
[2] = biological target: Adenosine receptor A3 (Homo sapiens) (UniProt P0DMS8); details: Compound concentration 10.0 uM
[3] = biological target: 5-hydroxytryptamine receptor 7 (Homo sapiens) (UniProt P34969); details: Compound concentration 10.0 uM
[4] = biological target: Histamine H1 receptor (Homo sapiens) (UniProt P35367); details: Compound concentration 10.0 uM
[5] = biological target: GABA-A receptor; anion channel (Rattus norvegicus) (UniProt O09028+P15431+P18506+P18508+P19969+P20236+P23574+P23576+P28471+P28473+P30191+P62813+P63079+P63138+Q91ZM7+Q9ES14); details: Compound concentration 10.0 uM
[6] = biological target: 5-hydroxytryptamine receptor 1A (Homo sapiens) (UniProt P08908); details: Compound concentration 10.0 uM
Sequence of 5-hydroxytryptamine receptor 1A (Homo sapiens) (P08908 whole entry): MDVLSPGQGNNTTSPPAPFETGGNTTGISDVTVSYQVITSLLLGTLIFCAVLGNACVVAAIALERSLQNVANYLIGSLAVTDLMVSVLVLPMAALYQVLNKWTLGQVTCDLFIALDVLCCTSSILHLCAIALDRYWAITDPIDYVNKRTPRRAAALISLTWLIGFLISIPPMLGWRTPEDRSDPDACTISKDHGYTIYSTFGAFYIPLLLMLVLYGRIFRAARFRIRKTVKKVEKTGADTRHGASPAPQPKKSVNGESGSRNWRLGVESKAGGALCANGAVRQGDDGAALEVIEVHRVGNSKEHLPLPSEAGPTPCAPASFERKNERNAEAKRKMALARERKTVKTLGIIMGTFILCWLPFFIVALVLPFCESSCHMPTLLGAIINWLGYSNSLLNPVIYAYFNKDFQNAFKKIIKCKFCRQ

[7] = biological target: Muscarinic acetylcholine receptor M5 (Homo sapiens) (UniProt P08912); details: Compound concentration 10.0 uM
[8] = biological target: Sodium-dependent dopamine transporter (Homo sapiens) (UniProt Q01959); details: Compound concentration 10.0 uM
[9] = biological target: 5-hydroxytryptamine receptor 2C (Homo sapiens) (UniProt P28335); details: Compound concentration 10.0 uM
Sequence of 5-hydroxytryptamine receptor 2C (Homo sapiens) (P28335 whole entry): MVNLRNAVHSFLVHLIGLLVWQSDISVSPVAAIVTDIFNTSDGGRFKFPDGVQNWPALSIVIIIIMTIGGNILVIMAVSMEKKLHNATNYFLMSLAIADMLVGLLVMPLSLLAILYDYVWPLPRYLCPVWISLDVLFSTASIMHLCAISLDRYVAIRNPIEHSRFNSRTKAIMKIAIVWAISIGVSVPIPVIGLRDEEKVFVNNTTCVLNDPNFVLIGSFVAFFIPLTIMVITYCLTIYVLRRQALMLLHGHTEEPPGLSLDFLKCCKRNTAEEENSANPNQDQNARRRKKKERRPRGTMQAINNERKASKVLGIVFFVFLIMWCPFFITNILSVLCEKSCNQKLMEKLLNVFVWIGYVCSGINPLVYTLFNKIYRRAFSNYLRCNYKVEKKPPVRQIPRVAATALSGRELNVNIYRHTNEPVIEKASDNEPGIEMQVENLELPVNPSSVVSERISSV

[10] = biological target: Beta-3 adrenergic receptor (Homo sapiens) (UniProt P13945); details: Compound concentration 10.0 uM
Sequence of Beta-3 adrenergic receptor (Homo sapiens) (P13945 whole entry, looked up): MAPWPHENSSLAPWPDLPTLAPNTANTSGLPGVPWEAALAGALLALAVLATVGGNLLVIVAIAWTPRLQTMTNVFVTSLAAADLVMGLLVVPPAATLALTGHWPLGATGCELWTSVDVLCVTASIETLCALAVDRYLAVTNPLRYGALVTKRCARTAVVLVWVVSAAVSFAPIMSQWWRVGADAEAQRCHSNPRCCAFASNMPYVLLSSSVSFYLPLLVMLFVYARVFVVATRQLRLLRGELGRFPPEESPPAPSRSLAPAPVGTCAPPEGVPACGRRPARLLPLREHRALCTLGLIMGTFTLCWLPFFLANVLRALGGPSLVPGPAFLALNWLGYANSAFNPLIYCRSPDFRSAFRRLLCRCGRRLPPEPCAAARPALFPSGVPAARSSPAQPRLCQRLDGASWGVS

[11] = biological target: 5-hydroxytryptamine receptor 1A (Homo sapiens) (UniProt P08908); details: Compound concentration 10.0 uM; remark: listed apart in the source
[12] = biological target: D(3) dopamine receptor (Homo sapiens) (UniProt P35462); details: Compound concentration 10.0 uM
[13] = biological target: Histamine H3 receptor (Homo sapiens) (UniProt Q9Y5N1); details: Compound concentration 10.0 uM
[14] = biological target: 5-hydroxytryptamine receptor 2C (Homo sapiens) (UniProt P28335); details: Compound concentration 10.0 uM; remark: listed apart in the source
[15] = biological target: Endothelin-1 receptor (Homo sapiens) (UniProt P25101); details: Compound concentration 10.0 uM
[16] = biological target: 5-hydroxytryptamine receptor 2A (Homo sapiens) (UniProt P28223); details: Compound concentration 10.0 uM
[17] = biological target: Alpha-1A adrenergic receptor (Homo sapiens) (UniProt P35348); details: Compound concentration 10.0 uM
[18] = biological target: Growth hormone secretagogue receptor type 1 (Homo sapiens) (UniProt Q92847); details: Compound concentration 10.0 uM
[19] = biological target: Mu-type opioid receptor (Homo sapiens) (UniProt P35372); details: Compound concentration 10.0 uM
[20] = biological target: Purinergic P2Y (Rattus norvegicus) (UniProt O35811+Q9EPX4+P49651+Q63371+P41232+O35881+Q6GUG4); details: Compound concentration 10.0 uM
[21] = biological target: Endothelin receptor type B (Homo sapiens) (UniProt P24530); details: Compound concentration 10.0 uM
[22] = biological target: Beta-3 adrenergic receptor (Homo sapiens) (UniProt P13945); details: Compound concentration 10.0 uM; remark: listed apart in the source
[23] = biological target: 5-hydroxytryptamine receptor 2B (Homo sapiens) (UniProt P41595); details: Compound concentration 10.0 uM
Sequence of 5-hydroxytryptamine receptor 2B (Homo sapiens) (P41595 whole entry): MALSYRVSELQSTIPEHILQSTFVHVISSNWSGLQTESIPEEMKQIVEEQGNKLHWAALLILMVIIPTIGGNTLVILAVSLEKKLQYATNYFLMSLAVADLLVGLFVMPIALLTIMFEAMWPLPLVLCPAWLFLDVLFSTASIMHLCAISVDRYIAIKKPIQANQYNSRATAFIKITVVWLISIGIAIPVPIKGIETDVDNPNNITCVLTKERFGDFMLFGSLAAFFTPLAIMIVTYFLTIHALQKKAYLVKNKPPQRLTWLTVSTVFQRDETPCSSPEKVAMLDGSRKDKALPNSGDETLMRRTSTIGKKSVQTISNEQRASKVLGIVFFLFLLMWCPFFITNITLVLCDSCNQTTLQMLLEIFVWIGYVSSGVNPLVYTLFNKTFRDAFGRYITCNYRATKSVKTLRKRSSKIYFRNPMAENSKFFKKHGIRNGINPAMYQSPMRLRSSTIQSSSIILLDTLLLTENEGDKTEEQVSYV

[24] = biological target: Glutamate NMDA receptor (Rattus norvegicus) (UniProt P35439+Q00959+Q00960+Q00961+Q62645+Q8VHN2+Q9R1M7); details: Compound concentration 10.0 uM
[25] = biological target: 5-hydroxytryptamine receptor 1B (Homo sapiens) (UniProt P28222); details: Compound concentration 10.0 uM
[26] = biological target: Androgen receptor (Homo sapiens) (UniProt P10275); details: Compound concentration 10.0 uM
[27] = biological target: Adenosine receptor A2a (Homo sapiens) (UniProt P29274); details: Compound concentration 10.0 uM
Sequence of Adenosine receptor A2a (Homo sapiens) (P29274 whole entry): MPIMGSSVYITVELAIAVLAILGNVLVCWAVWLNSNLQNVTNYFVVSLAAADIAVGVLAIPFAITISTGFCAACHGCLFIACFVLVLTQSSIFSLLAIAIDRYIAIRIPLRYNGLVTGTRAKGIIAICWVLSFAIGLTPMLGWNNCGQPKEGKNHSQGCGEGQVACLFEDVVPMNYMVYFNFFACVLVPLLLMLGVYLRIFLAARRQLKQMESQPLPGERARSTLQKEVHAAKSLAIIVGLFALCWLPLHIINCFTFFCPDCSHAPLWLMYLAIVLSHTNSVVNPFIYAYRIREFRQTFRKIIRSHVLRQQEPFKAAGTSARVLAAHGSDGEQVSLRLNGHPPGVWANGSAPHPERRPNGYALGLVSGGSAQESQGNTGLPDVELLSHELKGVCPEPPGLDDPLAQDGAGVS

[28] = biological target: Histamine H4 receptor (Homo sapiens) (UniProt Q9H3N8); details: Compound concentration 10.0 uM
[29] = biological target: 5-hydroxytryptamine receptor 1D (Homo sapiens) (UniProt P28221); details: Compound concentration 10.0 uM
[30] = biological target: D(1A) dopamine receptor (Homo sapiens) (UniProt P21728); details: Compound concentration 10.0 uM
Sequence of D(1A) dopamine receptor (Homo sapiens) (P21728 whole entry): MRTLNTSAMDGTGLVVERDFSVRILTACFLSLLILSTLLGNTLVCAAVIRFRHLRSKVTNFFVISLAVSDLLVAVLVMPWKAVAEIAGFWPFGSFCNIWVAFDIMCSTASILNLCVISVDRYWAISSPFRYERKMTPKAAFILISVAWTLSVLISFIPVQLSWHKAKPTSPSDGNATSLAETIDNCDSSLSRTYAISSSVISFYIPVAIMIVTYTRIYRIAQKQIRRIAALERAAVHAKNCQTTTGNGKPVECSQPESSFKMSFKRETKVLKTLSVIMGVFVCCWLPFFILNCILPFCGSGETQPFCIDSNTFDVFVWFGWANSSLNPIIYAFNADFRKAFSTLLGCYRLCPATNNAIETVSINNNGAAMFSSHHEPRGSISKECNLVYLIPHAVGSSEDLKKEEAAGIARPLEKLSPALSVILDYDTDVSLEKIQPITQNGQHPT

[31] = biological target: Adenosine receptor A1 (Homo sapiens) (UniProt P30542); details: Compound concentration 10.0 uM
[32] = biological target: Motilin receptor (Homo sapiens) (UniProt O43193); details: Compound concentration 10.0 uM
Sequence of Motilin receptor (Homo sapiens) (O43193 whole entry): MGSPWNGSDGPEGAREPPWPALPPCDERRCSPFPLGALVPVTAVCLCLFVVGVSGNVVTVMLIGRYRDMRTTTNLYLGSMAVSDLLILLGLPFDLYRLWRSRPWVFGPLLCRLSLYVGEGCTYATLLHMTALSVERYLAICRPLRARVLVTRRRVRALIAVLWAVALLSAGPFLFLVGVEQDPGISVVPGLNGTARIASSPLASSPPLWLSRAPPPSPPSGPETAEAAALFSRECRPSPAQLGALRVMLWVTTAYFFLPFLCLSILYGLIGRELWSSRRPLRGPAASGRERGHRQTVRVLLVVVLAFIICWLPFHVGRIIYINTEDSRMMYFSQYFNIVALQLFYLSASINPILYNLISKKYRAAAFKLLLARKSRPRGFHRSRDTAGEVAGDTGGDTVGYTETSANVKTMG

[33] = biological target: Aspartate aminotransferase, cytoplasmic (Homo sapiens, UniProt P17174); test: Aspartate transaminase assay (GOT1)
[34] = biological target: Histamine H2 receptor (Homo sapiens) (UniProt P25021); details: Compound concentration 10.0 uM
[35] = biological target: Glutamate receptor ionotropic, kainate (Rattus norvegicus) (UniProt P22756+Q01812+P42260+P42264+Q63273); details: Compound concentration 10.0 uM
[36] = biological target: Muscarinic acetylcholine receptor M1 (Homo sapiens) (UniProt P11229); details: Compound concentration 10.0 uM
[37] = biological target: Type-1 angiotensin II receptor (Homo sapiens) (UniProt P30556); details: Compound concentration 10.0 uM
Sequence of Type-1 angiotensin II receptor (Homo sapiens) (P30556 whole entry): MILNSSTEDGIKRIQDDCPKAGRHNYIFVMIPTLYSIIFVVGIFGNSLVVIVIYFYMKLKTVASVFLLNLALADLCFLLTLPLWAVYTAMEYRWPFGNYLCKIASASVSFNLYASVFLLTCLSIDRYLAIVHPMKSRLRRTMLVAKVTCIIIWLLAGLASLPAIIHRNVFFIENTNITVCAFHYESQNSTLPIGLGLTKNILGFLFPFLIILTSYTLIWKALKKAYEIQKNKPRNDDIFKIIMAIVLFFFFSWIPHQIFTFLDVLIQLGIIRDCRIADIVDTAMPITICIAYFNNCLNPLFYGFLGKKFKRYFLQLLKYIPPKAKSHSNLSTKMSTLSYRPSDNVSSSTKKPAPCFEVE

[38] = biological target: Alpha-2B adrenergic receptor (Homo sapiens) (UniProt P18089); details: Compound concentration 10.0 uM
Sequence of Alpha-2B adrenergic receptor (Homo sapiens) (P18089 whole entry): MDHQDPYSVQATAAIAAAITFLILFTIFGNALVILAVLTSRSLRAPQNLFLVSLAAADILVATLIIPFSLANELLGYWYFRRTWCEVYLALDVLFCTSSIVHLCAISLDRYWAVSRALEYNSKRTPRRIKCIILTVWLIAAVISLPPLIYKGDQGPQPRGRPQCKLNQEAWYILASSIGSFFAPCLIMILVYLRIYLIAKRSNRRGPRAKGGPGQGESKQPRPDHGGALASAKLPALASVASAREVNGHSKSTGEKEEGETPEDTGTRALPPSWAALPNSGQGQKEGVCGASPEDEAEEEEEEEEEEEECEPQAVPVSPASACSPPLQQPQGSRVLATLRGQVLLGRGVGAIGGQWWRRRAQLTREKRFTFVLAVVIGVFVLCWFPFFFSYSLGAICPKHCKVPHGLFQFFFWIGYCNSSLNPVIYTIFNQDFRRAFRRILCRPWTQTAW

[39] = biological target: B1 bradykinin receptor (Homo sapiens) (UniProt P46663); details: Compound concentration 10.0 uM
[40] = biological target: Beta-2 adrenergic receptor (Homo sapiens) (UniProt P07550); details: Compound concentration 10.0 uM
[41] = biological target: Alpha-2B adrenergic receptor (Homo sapiens) (UniProt P18089); details: Compound concentration 10.0 uM; remark: listed apart in the source
[42] = biological target: Glucocorticoid receptor (Homo sapiens) (UniProt P04150); details: Compound concentration 10.0 uM
Rattus norvegicus = species: Rattus norvegicus; details: Compound concentration 10.0 uM
[43] = biological target: Aspartate aminotransferase, mitochondrial (Homo sapiens, UniProt P00505); test: Aspartate transaminase assay (GOT2)
[44] = biological target: Muscarinic acetylcholine receptor M4 (Homo sapiens) (UniProt P08173); details: Compound concentration 10.0 uM
Sequence of Muscarinic acetylcholine receptor M4 (Homo sapiens) (P08173 whole entry): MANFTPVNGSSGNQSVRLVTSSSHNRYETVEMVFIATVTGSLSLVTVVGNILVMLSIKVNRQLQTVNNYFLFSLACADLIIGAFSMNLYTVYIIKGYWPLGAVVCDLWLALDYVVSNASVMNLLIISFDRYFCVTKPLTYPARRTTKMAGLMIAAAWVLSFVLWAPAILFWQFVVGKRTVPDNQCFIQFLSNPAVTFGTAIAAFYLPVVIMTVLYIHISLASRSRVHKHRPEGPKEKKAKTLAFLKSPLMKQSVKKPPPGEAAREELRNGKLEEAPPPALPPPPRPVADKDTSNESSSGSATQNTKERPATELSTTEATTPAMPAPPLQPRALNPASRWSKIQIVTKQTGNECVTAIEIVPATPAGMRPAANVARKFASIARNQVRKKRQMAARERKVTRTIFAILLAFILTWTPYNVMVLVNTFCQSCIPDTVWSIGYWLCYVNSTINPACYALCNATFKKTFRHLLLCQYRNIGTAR

Sequence of 5-hydroxytryptamine receptor 7 (Homo sapiens) (P34969 whole entry): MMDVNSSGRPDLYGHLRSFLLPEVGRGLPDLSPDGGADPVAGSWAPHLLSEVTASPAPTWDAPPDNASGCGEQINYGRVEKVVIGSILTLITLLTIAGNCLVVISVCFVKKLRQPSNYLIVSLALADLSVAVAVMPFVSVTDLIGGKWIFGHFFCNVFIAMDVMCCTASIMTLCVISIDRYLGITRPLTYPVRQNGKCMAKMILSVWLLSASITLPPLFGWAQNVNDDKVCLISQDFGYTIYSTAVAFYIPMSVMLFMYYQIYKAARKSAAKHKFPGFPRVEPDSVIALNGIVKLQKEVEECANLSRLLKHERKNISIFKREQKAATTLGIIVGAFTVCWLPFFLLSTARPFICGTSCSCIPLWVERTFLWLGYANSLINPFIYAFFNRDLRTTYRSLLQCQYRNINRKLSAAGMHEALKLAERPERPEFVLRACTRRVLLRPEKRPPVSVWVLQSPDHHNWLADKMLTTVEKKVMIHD

inhibition [1]: 20.3%
inhibition [2]: -2%
inhibition [3]: 13.1%
inhibition [4]: -2%
inhibition [5]: 15%
inhibition [6]: 9%
inhibition [7]: -5.66%
inhibition [8]: 33%
inhibition [9]: 0.89%
inhibition [10]: 22.9%
inhibition [11]: 8.88%
inhibition [12]: 8.85%
inhibition [13]: 3%
inhibition [14]: 3%
inhibition [15]: -2%
inhibition [16]: 1%
inhibition [17]: -2.81%
inhibition [18]: 1%
inhibition [19]: 20.9%
inhibition [20]: -4%
inhibition [21]: -9%
inhibition [22]: 15%
inhibition [23]: -0.49%
inhibition [24]: 11%
inhibition [25]: 4.02%
inhibition [26]: 9%
inhibition [27]: -6%
inhibition [28]: -6.41%
inhibition [29]: 0.75%
inhibition [30]: 7%
inhibition [31]: 27%
inhibition [32]: 4%
IC50 [33]: > 50 µM (not active)
inhibition [34]: -2%
inhibition [35]: -4%
inhibition [36]: 17.8%
inhibition [37]: 7%
inhibition [38]: -2%
inhibition [39]: -8%
inhibition [40]: 11.2%
inhibition [41]: -8.63%
inhibition [42]: 13%
inhibition (Rattus norvegicus): 63.9%
IC50 [43]: > 50 µM (not active)
inhibition [44]: -5%
Compound: Cc1ccccc1Oc1cc(-n2c(=O)cc(C(F)(F)F)[nH]c2=O)c2ccccc2c1Cl [BAY-069]
